The values that follow come from PubChem BioAssay (NCI).

What all share (test): DTP human tumour cell line panel, 48 h
The test system of experiment [1] is OVCAR-8 ovarian.
Experiment [2] has as its system KM20L2 colon.
The subject of experiment [3] is NCI-H460 lung.
The subject of experiment [4] is HL-60(TB) leukemia.
The subject of experiment [5] is NCI-H226 lung.
In experiment [6] the test system is UACC-62 melanoma.
Experiment [7] concerns MALME-3M melanoma.
Experiment [8] concerns HOP-92 NSCLC.
Experiment [9] deals with NCI-H522 lung.
Experiment [10] deals with MDA-N.

Broadly, the TGI is the concentration giving total growth inhibition. As usually defined, the GI50 is the concentration that inhibits growth by half.

The structures appear in SMILES notation.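 Values below derive from 48-hour exposures of cells grown in 96-well plates, with endpoints linearly interpolated between the two concentrations bracketing the appropriate inhibition level. GI50 marks 50% less growth. TGI marks complete inhibition of growth.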

For the compound `COc1cc2c(c(OC)c1OC)-c1[nH]ncc1CC2`, the TGI in [1], in experiment [2], in [3], in [4], in experiment [5] and in experiment [6] was more than 100 µM in each case. Besides, the TGI in experiment [7] and in experiment [8] was more than 100 µM each time.

For `O=c1[nH]c(Br)nc2c(Br)c[nH]c12`, the TGI in experiment [1], in experiment [2], in [9], in [3], in experiment [4] and in experiment [5] was more than 100 µM throughout. The TGI in experiment [6], in experiment [7] and in experiment [8] was more than 100 µM throughout.

`Cn1c(CCC#N)nc2ccc(Br)cc2c1=O`: the TGI in [1], in experiment [2], in [9], in experiment [3], in experiment [4] and in experiment [5] was more than 100 µM each time. For the same compound, the TGI in [6], in experiment [7] and in experiment [8] was more than 100 µM throughout.

As for `Cc1ccccc1C(=O)Oc1ccc(Oc2ccccc2)cc1`, the TGI in experiment [1], in experiment [2], in experiment [3], in experiment [4], in experiment [5] and in experiment [6] was more than 100 µM throughout. Besides, the TGI in experiment [7] was more than 100 µM.

Regarding `O=C(OCCOCBr)c1ccccc1`, the TGI in experiment [1], in experiment [2], in experiment [9], in experiment [3], in [4] and in [5] was more than 100 µM in each case. In addition, the TGI in experiment [6], in [7] and in experiment [8] was more than 100 µM throughout.

On to `C(=C\c1csnn1)/c1cccnc1`, for which the TGI in experiment [1], in experiment [2], in experiment [9], in experiment [3], in experiment [4] and in experiment [5] was more than 100 µM throughout. In experiment [7], this compound displayed a total growth inhibition concentration (TGI) of more than 100 µM.

In the case of `CC(=O)N1CC2Nc3ccccc3C2CC1CO` (configuration not stated), the total growth inhibition concentration (TGI) in experiment [1], in experiment [2], in [9], in experiment [3], in [4] and in experiment [5] was more than 100 µM in each case. In addition, the total growth inhibition concentration (TGI) in experiment [6], in experiment [7] and in experiment [8] was more than 100 µM in each case.

`O=Cc1ccc(-c2ccc(-c3ccc(C=O)s3)o2)s1`: the TGI was more than 100 µM in [1]; more than 100 µM in [2]; 29.5 µM in experiment [9]; more than 100 µM in experiment [10]; more than 100 µM in experiment [3]; more than 100 µM in experiment [4]. Besides, the total growth inhibition concentration (TGI) is 2.46 µM in experiment [5], 0.441 µM in [6], more than 100 µM in [7] and more than 100 µM in experiment [8].

In the case of `O=C1C=C(Nc2ccccc2C(=O)CC(=O)C(=O)Nc2cccc(C(F)(F)F)c2)c2ccccc2C1=O`, the TGI in experiment [1] is 56.4 µM; in experiment [2], more than 100 µM; in [9] it was 79.2 µM; in [10], 26.7 µM; in [3], more than 100 µM; in [4] it was 24.2 µM. Besides, the total growth inhibition concentration (TGI) in [5] is more than 100 µM; in experiment [6] it was 32.3 µM; in experiment [7] it was 28.7 µM; in [8] it was more than 94.3 µM.

Turning to `CCCNCc1nc2ccc(Br)cc2c(=O)n1CCC`, the TGI in experiment [1] was 26.7 µM; in experiment [2], 34.3 µM; in [9] it was 26.8 µM; in experiment [4], 30.8 µM; in [5], 26 µM; in [6] it was 19.8 µM. Also, the TGI in [7] was 26.4 µM.

`Nc1ccc(Nc2nc(F)nc(-c3c4ccccc4c4n3CCS4)n2)cc1`: the TGI amounted to 37.8 µM in [1]; 33.5 µM in experiment [2]; 28.6 µM in [9]; 25.9 µM in [5]; 31.6 µM in experiment [7]; 30.5 µM in experiment [8].

For the compound `Cc1ccc(C)c(NC(=O)c2cc(-c3ccc([N+](=O)[O-])cc3)nc(N)n2)c1`, the TGI in experiment [1], in [2], in experiment [9], in [3], in experiment [4] and in experiment [5] was more than 100 µM each time. The TGI in experiment [6], in experiment [7] and in experiment [8] was more than 100 µM in each case.

For `COC(OC)c1cccc2c1C1(O)CCC3(CC21)OCCCCO3` (configuration not stated), the TGI in experiment [1], in experiment [2], in [9], in experiment [3], in experiment [4] and in experiment [5] was more than 100 µM throughout. Also, the total growth inhibition concentration (TGI) in experiment [6] and in [7] was more than 100 µM each time.

As for `O=C(CCC(=O)Nc1ccc(Cl)cc1)CC(=O)c1ccc(F)cc1`, the total growth inhibition concentration (TGI) in experiment [1], in [2], in experiment [9], in experiment [3], in [4] and in experiment [5] was more than 100 µM in each case. The TGI in [6], in [7] and in [8] was more than 100 µM in each case.

For the compound `O=c1c2ccc3cccc4c(=O)cc(c5ccccc15)-c2c34`, the total growth inhibition concentration (TGI) in [1], in [2], in experiment [9], in experiment [3], in experiment [4] and in [5] was more than 100 µM each time. For the same compound, the concentration for total growth inhibition (TGI) in [6] and in experiment [7] was more than 100 µM throughout.

`CC(C)C(=O)N[C@@H](C)C(=O)N(Cc1ccc2ccccc2c1)N=O`: the TGI in [1], in [2], in experiment [3], in [6] and in experiment [7] was more than 100 µM each time.

In the case of `CC1=CC(C)(C)N=C2SC(c3ccc(Cl)cc3)=NN12`, the concentration for total growth inhibition (TGI) in experiment [2] is more than 100 µM; in experiment [9], 46.4 µM; in experiment [3] it was more than 100 µM; in experiment [4] it was 32.5 µM; in experiment [5], 55.4 µM; in [6] it was more than 100 µM. Further, the TGI in [7] came out at 75.6 µM; in experiment [8], 61.5 µM.

For the compound `O=C(O)/C(=C/c1ccccc1[N+](=O)[O-])c1ccccc1`, the TGI in [1], in [2], in experiment [9], in [3], in experiment [4] and in experiment [5] was more than 100 µM throughout. Also, the TGI in experiment [6] is more than 100 µM.

Turning to `CCOC(=O)/N=C(\N)SCc1ccccc1`, the total growth inhibition concentration (TGI) in experiment [1], in [2], in experiment [9], in [3], in [4] and in experiment [5] was more than 100 µM in each case. Besides, the TGI in [6], in experiment [7] and in [8] was more than 100 µM each time.

As to `CCC[CH2][Sn]([CH2]CCC)([O]C(=O)c1cccc(F)c1)[O]C(=O)c1cccc(F)c1`, the GI50 in [1] is 1.22 µM; in experiment [2] it was 1.47 µM; in experiment [9], 0.246 µM; in [3] it was 2.08 µM; in experiment [5], 1.16 µM; in [6], 0.719 µM. Also, the GI50 in experiment [7] is 0.907 µM. Also, the total growth inhibition concentration (TGI) in experiment [1] stood at 2.6 µM; in experiment [2] it was 2.91 µM; in experiment [9], 0.91 µM; in experiment [3], 5.38 µM; in experiment [5], 2.4 µM; in [6] it was 2.09 µM. In addition, in experiment [7], the TGI worked out at 2.25 µM.

`O=c1ccccc2cccc(O)c12`: the TGI in [1], in experiment [2], in experiment [3], in experiment [4], in experiment [6] and in [8] was more than 100 µM in each case.

For the compound `CC(=O)OC12c3ccccc3C1CCCCCC21OCCCO1` (configuration not stated), the TGI in experiment [1], in [2], in [9], in experiment [3], in experiment [4] and in experiment [5] was more than 100 µM each time. In experiment [6], this compound displayed a total growth inhibition concentration (TGI) of more than 100 µM.

Turning to `O=c1cc(Cl)nc[nH]1`, the total growth inhibition concentration (TGI) in [1], in experiment [2], in experiment [9], in experiment [3], in experiment [4] and in experiment [5] was more than 100 µM each time. Besides, the TGI in experiment [6] and in experiment [7] was more than 100 µM each time.

As to `Cc1cc(NS(=O)(=O)c2ccc(NC(=O)c3cccc4c(N)c5ccccc5nc34)cc2)no1`, the TGI was 59.4 µM in [1]; more than 100 µM in experiment [2]; 33.9 µM in [9]; more than 100 µM in experiment [3]; 33.4 µM in [5]; 57.7 µM in experiment [6]. In experiment [7], the concentration for total growth inhibition (TGI) worked out at 77.4 µM.

As for `N=C(c1ccccc1)N(O)C1CCCCC1`, the concentration for total growth inhibition (TGI) in experiment [1], in experiment [2], in experiment [9], in experiment [3], in experiment [4] and in experiment [5] was more than 100 µM each time. In addition, the TGI in experiment [7] and in experiment [8] was more than 100 µM throughout.

`COc1ccc2c3c1C(=O)CCC3CO2` (configuration not stated): the TGI in experiment [1], in [2], in experiment [9], in experiment [3], in experiment [4] and in [6] was more than 100 µM throughout. Also, the TGI in experiment [7] and in experiment [8] was more than 100 µM each time.
